Patent US10774083B2, “Heterocyclic amide compound” (TAKEDA PHARMACEUTICAL COMPANY LIMITED, priority 2016, dated 2020)

Tests used:
[1] = system: human malignant melanoma cell line SKMEL-2; assay: antitumor action on mice transplanted with human malignant melanoma cell line SKMEL-2; format: in vivo, mouse; settings: once per day, 14 days
Method: An antitumor action of the compound of the present invention on mice transplanted with human malignant melanoma cell line SKMEL-2 and human fibrosarcoma cell line HT-1080 was evaluated by the following method.
Human malignant melanoma cell line SKMEL-2 was subcutaneously transplanted by injection to 7-week-old BALB/cA Jcl-nu/nu female mice (CLEA Japan, Inc.) at 1.0×10^7 cells (G1). At the time point when the tumor volume reached around 800 mm^3 after transplantation, the cells were subcultured and transplanted into 7-week-old BALB/cA Jcl-nu/nu female mouse (CLEA Japan, Inc.) by using trocar (G2). […] At 13 days from transplantation, the tumor diameter of the engrafted tumor was measured and the tumor volume was calculated by the following formula.
Individuals having a tumor volume of 100 to 300 mm^3 were selected for SKMEL-2, and individuals having a tumor volume of 200 to 400 mm^3 were selected for HT-1080, and 4 or 5 mice per group were used for the experiment. […] The tumor diameter was measured one day before the start of administration and one day after completion of administration and the tumor volume was calculated.
The tumor proliferation rate (T/C (%)) of the test compound administration group in comparison with the control administration group was calculated by the following formula. […]

[2] = system: human ovarian cancer cells A2780; assay: proliferation inhibitory activity against human ovarian cancer cell A2780 (CellTiter-Glo); format: cell-based; settings: A2780, 72 h, 1 μM test compound, 3 days of culture, read-out: proliferation inhibitory rate (%) of A2780 cells
How it was run: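 A2780 cells in RPMI-1640 with 10% FBS, compound added the day after seeding and cultured 3 days. Viability by CellTiter-Glo luminescence. Inhibition (%) calculated with cell-free wells as 100% inhibition.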

Cc1cc(N2CC[C@@](C#N)(C3CC3)C2=O)cc(C(=O)NCc2cc(F)cc(-c3cnn(C)c3)c2)n1 [Example 159, 4-((3S)-3-cyano-3-cyclopropyl-2-oxopyrrolidin-1-yl)-N-(3-fluoro-5-(1-methyl-1H-pyrazol-4-yl)benzyl)-6-methylpyridine-2-carboxamide]
T/C (%) tumor proliferation rate ([1]; SKMEL-2, 5 mg/kg orally): 64%
T/C (%) tumor proliferation rate ([1]; SKMEL-2, 10 mg/kg orally): 7.7%
inhibition at 1 µM [2]: 96%
